The results in this text go back to BindingDB's records for doi:10.1016/j.ejmech.2016.05.044 (Texas A&M University, 2016).

The experiment in a line: Negative allosteric modulator activity at CB1 receptor (unknown origin) expressed in HEK293 cell membrane assessed as reduction in CP55,940-induced [35S]GTPgammaS binding by measuring EC50 of CP55,940 at 3.2 uM incubated for 60 mins by liquid scintillation counting analysis (Rvb = 4.7 nM).
For the compound `CCCCCc1c(C(=O)NCCc2ccc(C(=O)c3ccccc3)cc2)[nH]c2ccc(Cl)cc12`, the EC50 is 7.9 nM.
Take `CCCCCCc1c(C(=O)NCCc2ccc(N=[N+]=[N-])cc2)[nH]c2ccc(Cl)cc12`: the EC50 amounted to 2.1 nM.
The same measure for `CN(C)c1ccc(CCNC(=O)c2[nH]c3ccc(Cl)cc3c2CN=[N+]=[N-])cc1`: 1.2 nM.
The same measure for `CCc1c(C(=O)NCCc2ccc(C(=O)c3ccccc3)cc2)[nH]c2ccc(Cl)cc12`: 2.7 nM.
